{
  "source": "patent US8481490B2",
  "about": "“Method of reducing plasma amylase and/or plasma lipase in patients with pancreatitis” (Amylin Pharmaceuticals, LLC, priority 2010, dated 2013)",
  "origin": "cited, not measured here",
  "test_system": "diabetic transgenic HIP rats",
  "conditions": "one rat with histological features of acute pancreatitis",
  "data": [
    {"smiles": "N[C@@H](CC(=O)N1CCn2c(nnc2C(F)(F)F)C1)Cc1cc(F)c(F)cc1F", "note": "[sitagliptin]", "values": [
      {"measurement": "ductal cell turnover and metaplasia", "value": "increased ductal cell turnover and metaplasia"}
    ]}
  ]
}
